Source: article PMC11647725, “Discovery of 4-(5-Membered)Heteroarylether-6-methylpicolinamide Negative Allosteric Modulators of Metabotropic Glutamate Receptor Subtype 5” (ACS Medicinal Chemistry Letters, 2024)
Where two headings read alike, the source gives them in different places.

Tests used:
[1] = molecular target: T1, human mGlu5 (Homo sapiens, UniProt P41594); assay: Calcium mobilization assay in human mGlu5-HEK293A cells (NAM, EC80 glutamate); format: cell-based; details: for % GluMin: efficacy of the NAM to reduce an EC80 response of glutamate; for pIC50: n = 2 in triplicate; for IC50: read-out: hmGlu5 IC50; for fold increase in hmGlu5 potency: 22fC vs 22bC, 22gA vs 22iA, 22iA vs 22hA, 22iB vs 22hB
T1 construct: expressed in transfected cells

[2] = IV plasma-brain level determination (PBL) in rat; format: in vivo; details: male, Sprague-Dawley, brain and plasma, SD rat, 0.2 mg/kg IV; for Kp at 0.25 h: total brain-to-plasma partition ratio; for Kp uu at 0.25 h: unbound brain-to-plasma partition ratio
[3] = Binding in brain homogenate from rat (equilibrium dialysis); format: in vitro ADME; details: rat brain homogenates; for fraction unbound at 6 h, 1 µM: rat, brain homogenate, read-out: Rat fu,brain
Procedure: transferred to the corresponding wells of new daughter plates (96-shallow-well, V bottom) containing water (Milli-Q, 60 µL/well), and the plates were sealed in preparation for LC-MS/MS analysis (see below). fu was calculated as (analyte to IS MS peak area ratio from Trans-buffer side) / (analyte to IS MS peak area ratio from Cis-plasma side). Mean values for each species were calculated from 3 replicates.
Binding in brain homogenate from rat.
Determination of fraction unbound (f u) in brain homogenate from rat was conducted using the same methodology and procedure than described for plasma protein binding assay with the following modifications: 1) a final compound concentration of 1 μM was used, 2) naïve rat brains were homogenized in DPBS (1:3 composition of brain: DPBS, w/w) using a Mini-Bead Beater™ machine in order to obtain […]
The diluted fraction unbound (f u2) in brain was calculated as (analyte to IS MS peak area ratio from Trans-buffer side) / (analyte to IS MS peak area ratio from Cis-brain homogenate side). Undiluted fraction unbound for the brain was calculated using the following equation: […]
(§1) Mean values for each species were calculated from 3 replicates. […]

[4] = Intrinsic clearance in rat liver microsomes; format: in vitro ADME; details: for CLint scaled at 40 min, 1 µM: pH 7.4, rat liver microsomes; for CLhep, rat: predicted hepatic clearance based on microsomal CLint
Procedure: (§2) Mean values for each species were calculated from 3 replicates.
(§3) Intrinsic Clearance in Rat and Human Liver Microsomes
(§4) The in vitro intrinsic clearance (CL int) was investigated in commercially obtained hepatic microsomes from rat and human donors using the substrate depletion (i.e., loss-of-parent vs. time, or t 1/2 method) approach with analyte detection via liquid chromatography-tandem mass spectrometry (LC-MS/MS). For each species, mean %parent remaining values at each time point were calculated from replicates raw data (analyte:IS peak area ratios) and used to determine in vitro t 1/2 and CLint.
(§5) Experiments were carried out using a robot-assisted (TECAN model Evo 200). Compound was incubated (1 µM final concentration) in buffer (100 mM potassium phosphate pH 7.4 with 3 mM MgCl2) containing hepatic microsomes (0.5 mg/mL final concentration) from multiple species, discretely, at 37 °C under constant orbital shaking. After 5 minutes (pre-incubation), reactions were initiated by addition of nicotinamide adenine dinucleotide phosphate (NADPH, 1 mM final concentration). At selected time intervals (0, 3, 7, 15, 25, and 45 minutes) post-addition of NADPH, aliquots (50 µL) were taken and placed into a 96-shallow-well plate containing ice cold acetonitrile (150 µL) with carbamazepine (IS, 50 nM). The plates were then centrifuged (3000 rcf at 4 °C) for 10 minutes. The supernatants were transferred to a new 96-shallow-well daughter plate and diluted (1:1 v/v) with water (Milli-Q filtered). The plates were then sealed in preparation for LC-MS/MS analysis (see below).
(§6) Raw LC-MS/MS peak area data generated from the assay samples were used to construct natural log-transformed %parent remaining vs. time plots (using t = 0 minute post-NADPH addition sample data as starting point set to 100%). In vitro compound half-life (t 1/2) values were obtained using the following […]
(§7) k is the slope from linear regression analysis of the natural log-transformed data (using means from Where all replicates at each time point). Resulting t 1/2 values were then used to calculate hepatic CLint values according to the following equation and with the use of species-specific scale-up factors for liver weight (grams) per total body weight (kg): […]
(§8) CLint = in vitro t1/2 x 0.5 mg microsomes x 1 gram liver x kg body wt aScale-up factors used are 45 (rat) and 20 (human).4
(§9) Predicted hepatic clearance (CLhep) was calculated using the following equation: […]
(§10) Qh represents hepatic blood flow (mL/min/kg): 21 for human, 70 for rat, and 90 for mouse.
(§11) Prepared samples were injected (10 µL each) onto an AB Sciex Triple Quad 4500 mass spectrometer system with an Agilent 1260 Infinity II pump and autosampler. Mass spectrometer conditions are described in Table S1. Quantitation of compounds was performed via AB Sciex Multiquant software using the raw analyte:IS peak area ratios. The typical detection range was 0.5 ng/mL to ≥ 5,000 ng/mL utilizing a quadratic equation regression with 1/x2 weighting.
(§12) Correction for dilution of all brain samples (in extraction buffer and subsequently in blank plasma, as previously described) was performed post-quantitation. The corrections for dilution in extraction buffer employed correction factors specific to each brain weight (not shown).

[5] = Binding in plasma from human (equilibrium dialysis); format: in vitro ADME; details: for fraction unbound at 6 h, 5 µM: human, plasma, read-out: Human fu,plasma
Procedure: (§13) Binding in plasma from rat and human.
(§14) Determination of compounds’ fraction unbound (f u) in plasma from rat and human was conducted in vitro via equilibrium dialysis using HTDialysis membrane plates. Dialysis membranes (four paired strips per HTD assay) were hydrated as described by the manufacturer and inserted into the HTD plate, which was assembled and prepared for sample addition by the dispensing of blank buffer (DPBS, 100 µL/well) into the ‘top half’ of each membrane-split well. Each compound was diluted into plasma from each species (5 µM final concentration), which was aliquoted in triplicate to the ‘bottom half’ of the prepared HTD plate wells. The HTD plate was sealed and incubated for 6 hours at 37 °C. Following incubation, each well (both top and bottom halves) were transferred (20 µL) to the corresponding wells of a 96-shallow-well (V-bottom) plate. The daughter plates were then matrix-matched (buffer side wells received equal volume of plasma, and plasma side wells received equal volume of buffer), and extraction solution (120 µL; acetonitrile containing 50 nM carbamazepine as IS) was added to all wells of both daughter plates to precipitate protein and extract test article. The plates were then sealed and centrifuged (3500 rcf) for 10 minutes at ambient temperature. Supernatant (60 µL) from each well of the daughter plates was then transferred to the corresponding wells of new daughter plates (96-shallow-well, V bottom) containing water (Milli-Q, 60 µL/well), and the plates were sealed in preparation for LC-MS/MS analysis (see below). fu was calculated as (analyte to IS MS peak area ratio from Trans-buffer side) / (analyte to IS MS peak area ratio from Cis-plasma side). Mean values for each species were calculated from 3 replicates. […]
as §1
as §5, with “After” for “Experiments were carried out using a robot-assisted (TECAN model Evo 200). Compound was incubated (1 µM final concentration) in buffer (100 mM potassium phosphate pH 7.4 with 3 mM MgCl2) containing hepatic microsomes (0.5 mg/mL final concentration) from multiple species, discretely, at 37 °C under constant orbital shaking. After”

[6] = Binding in plasma from rat (equilibrium dialysis); format: in vitro ADME; details: for stability in rat plasma: samples had low analyte peaks; for fraction unbound at 6 h, 5 µM: rat, plasma, equilibrium dialysis, read-out: Rat fu,plasma
Procedure: as §13, §14, §1
as §5, with “After” for “Experiments were carried out using a robot-assisted (TECAN model Evo 200). Compound was incubated (1 µM final concentration) in buffer (100 mM potassium phosphate pH 7.4 with 3 mM MgCl2) containing hepatic microsomes (0.5 mg/mL final concentration) from multiple species, discretely, at 37 °C under constant orbital shaking. After”

[7] = Intrinsic clearance in human liver microsomes; format: in vitro ADME; details: for CLint scaled at 40 min, 1 µM: pH 7.4, human liver microsomes; for CLhep, human: predicted hepatic clearance based on microsomal CLint
Procedure: as §2, §3, §4, §5, §6, §7, §8, §9, §10, §11, §12

[8] = human mGlu5-HEK293A cells, EC80 fixed concentration of glutamate

T1 sequence (P41594 21-1212): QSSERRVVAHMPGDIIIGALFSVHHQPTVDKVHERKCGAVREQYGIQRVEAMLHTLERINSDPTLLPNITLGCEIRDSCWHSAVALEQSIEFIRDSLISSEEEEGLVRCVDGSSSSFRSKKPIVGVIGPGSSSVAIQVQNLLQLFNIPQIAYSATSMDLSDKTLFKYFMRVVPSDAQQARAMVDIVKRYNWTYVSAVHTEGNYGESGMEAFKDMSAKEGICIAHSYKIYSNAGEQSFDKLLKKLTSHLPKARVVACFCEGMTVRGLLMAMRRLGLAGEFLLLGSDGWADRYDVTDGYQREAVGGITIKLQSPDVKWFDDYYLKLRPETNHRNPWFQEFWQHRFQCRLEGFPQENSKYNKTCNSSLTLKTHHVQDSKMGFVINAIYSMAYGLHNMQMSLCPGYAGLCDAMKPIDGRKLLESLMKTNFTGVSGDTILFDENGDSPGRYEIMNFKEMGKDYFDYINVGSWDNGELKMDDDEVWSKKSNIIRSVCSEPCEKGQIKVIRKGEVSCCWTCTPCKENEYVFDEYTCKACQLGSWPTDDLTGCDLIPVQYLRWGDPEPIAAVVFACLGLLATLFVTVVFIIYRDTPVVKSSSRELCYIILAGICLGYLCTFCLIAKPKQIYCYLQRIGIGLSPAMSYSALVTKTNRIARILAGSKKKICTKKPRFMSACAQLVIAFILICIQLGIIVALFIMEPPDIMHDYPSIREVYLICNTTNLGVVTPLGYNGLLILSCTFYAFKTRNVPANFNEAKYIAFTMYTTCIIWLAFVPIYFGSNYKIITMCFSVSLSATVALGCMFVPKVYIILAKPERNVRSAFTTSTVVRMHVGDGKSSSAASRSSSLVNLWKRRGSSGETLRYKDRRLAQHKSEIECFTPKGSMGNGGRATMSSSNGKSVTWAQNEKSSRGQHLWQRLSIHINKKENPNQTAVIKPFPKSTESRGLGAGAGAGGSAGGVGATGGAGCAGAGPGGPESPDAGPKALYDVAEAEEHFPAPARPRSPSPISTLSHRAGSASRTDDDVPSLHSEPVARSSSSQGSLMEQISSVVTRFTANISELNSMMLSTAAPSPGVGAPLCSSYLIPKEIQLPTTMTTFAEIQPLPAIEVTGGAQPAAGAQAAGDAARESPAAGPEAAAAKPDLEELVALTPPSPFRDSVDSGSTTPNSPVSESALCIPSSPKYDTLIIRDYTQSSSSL

SMILES | % GluMin ([1]; human mGlu5-HEK293A cells) | pIC50 [1, 8] | IC50 [1, 8] | IC50 [1] | Kp at 0.25 h [2] | Rat fu,brain ([3]; fraction unbound) | fraction unbound at 6 h, 1 µM [3] | fold increase in hmGlu5 potency [1] | CLint scaled at 40 min, 1 µM [4] | CLhep, rat [4] | fraction unbound at 6 h, 5 µM [5] | stability in rat plasma [6] | CLint scaled at 40 min, 1 µM [7] | CLhep, human [7] | Kp uu at 0.25 h [2] | Human fu,plasma ([5]; fraction unbound) | fraction unbound at 6 h, 5 µM [6]
Cc1cccc(NC(=O)c2cc(Oc3c(C)nn(C)c3C)cc(C)n2)n1 [22aC] | 2% | 5.55 | 2840 nM | 2800 nM |  |  |  |  |  |  |  |  |  |  |  |  | 
Cc1cc(Oc2cn(C)nc2C)cc(C(=O)Nc2nc(C)cs2)n1 [22bB] | 2% | 5.91 | 1250 nM |  |  |  |  |  |  |  |  |  |  |  |  |  | 
Cc1cc(Oc2cc(C(F)F)n(C)n2)cc(C(=O)Nc2nc(C)cs2)n1 [22cB] | 2% | 5.74 | 1850 nM |  |  |  |  |  |  |  |  |  |  |  |  |  | 
Cc1cc(Oc2ncn(C)n2)cc(C(=O)Nc2nc(C)cs2)n1 [22dB] | 2% | 5.73 | 1890 nM |  |  |  |  |  |  |  |  |  |  |  |  |  | 
Cc1cccc(NC(=O)c2cc(Oc3ncn(C)n3)cc(C)n2)n1 [22dC] | 2% | 6.00 | 1010 nM |  |  |  |  |  |  |  |  |  |  |  |  |  | 
Cc1cc(Oc2cc(C)n(C)n2)cc(C(=O)Nc2nc(C)cs2)n1 [22eB] | 2% | 5.77 | 1720 nM |  |  |  |  |  |  |  |  |  |  |  |  |  | 
Cc1cccc(NC(=O)c2cc(Oc3cc(C)nn3C)cc(C)n2)n1 [22fC] | 2% | 6.69 | 207 nM |  | 1.02 | 0.008 | < 0.01 | 7.8 fold | 436 mL/min/kg | 60 mL/min/kg | 0.037 | possibly be unstable in rat plasma | 71 mL/min/kg | 16 mL/min/kg |  |  | 
Cc1cc(Oc2cnn(C)c2C(F)(F)F)cc(C(=O)Nc2ccc(F)cn2)n1 [22gA] | 2% | 6.93 | 120 nM |  | 3.08 |  |  | ~3 fold | 82 mL/min/kg | 38 mL/min/kg | 0.012 | possibly be unstable in rat plasma | 11 mL/min/kg | 7 mL/min/kg |  |  | 
Cc1cc(Oc2cnn(C)c2C(F)(F)F)cc(C(=O)Nc2nc(C)cs2)n1 [22gB] | 2% | 7.58 | 26 nM |  | 5.57 |  |  |  | 817 mL/min/kg | 65 mL/min/kg |  | possibly be unstable in rat plasma | 70 mL/min/kg | 16 mL/min/kg |  |  | 
Cc1cccc(NC(=O)c2cc(Oc3cnn(C)c3C(F)(F)F)cc(C)n2)n1 [22gC] |  |  |  |  |  |  | 0.005 |  | 600 mL/min/kg | 63 mL/min/kg | 0.011 |  | 68 mL/min/kg | 16 mL/min/kg |  |  | 
Cc1cc(Oc2ccnn2C)cc(C(=O)Nc2ccc(F)cn2)n1 [22hA] | 2% | 6.30 | 506 nM |  |  |  |  |  |  |  |  |  |  |  |  |  | 
Cc1cc(Oc2ccnn2C)cc(C(=O)Nc2nc(C)cs2)n1 [22hB] | 2% | 7.02 | 96 nM |  | 1.13 |  | 0.029 |  | 45 mL/min/kg | 27 mL/min/kg | > 0.04 |  | 216 mL/min/kg | 19 mL/min/kg | 0.15 | 0.062 | 
Cc1cccc(NC(=O)c2cc(Oc3ccnn3C)cc(C)n2)n1 [22hC] | 2% | 7.04 | 91 nM |  | 2.42 |  | 0.021 |  | 320 mL/min/kg | 57 mL/min/kg | 0.034 | potentially be unstable in rat plasma | 241 mL/min/kg | 19 mL/min/kg |  |  | 
Cc1cc(Oc2cnn(C)c2)cc(C(=O)Nc2nc(C)cs2)n1 [22iB] | 2% | 7.56 | 28 nM |  | 1.37 |  | 0.014 | 3.4 fold | 44 mL/min/kg | 27 mL/min/kg | 0.063 |  | 46 mL/min/kg | 14 mL/min/kg | 0.22 |  | 0.089
Cc1cccc(NC(=O)c2cc(Oc3cnn(C)c3)cc(C)n2)n1 [22iC] | 1% | 7.38 | 41 nM |  | 1.04 |  | 0.013 |  | 234 mL/min/kg | 54 mL/min/kg | 0.041 |  | 77 mL/min/kg | 17 mL/min/kg | 0.23 |  | 0.059
Cc1csc(NC(=O)c2cc(Oc3cnn(C)c3)c(C(F)(F)F)cn2)n1 [24B] | 2% | 5.55 | 2820 nM | 2800 nM |  |  |  |  |  |  |  |  |  |  |  |  | 
Cc1cccc(NC(=O)c2cc(Oc3cnn(C)c3)c(C(F)(F)F)cn2)n1 [24C] | 2% | 5.89 | 1330 nM | 1300 nM |  |  |  |  |  |  |  |  |  |  |  |  | 
